Laboratory results: patent publication US20250282820A1, “PEPTIDE COMPLEX HAVING TRKB BINDING ACTIVITY” (PEPTIDREAM INC, priority 2022, published 2025)
*1 amine or outer side, *2 acyl side, *3 side chain or, on linkers, in order; H or OH if unused. Where a SMILES comes first, the peptide text is derived from it. Bridges are numbered along the chain shown (N, C = ends). Roman numbers before positions name the chains, in order. [ ]: non-standard residue; d: D form. CO(CH2)2(OCH2CH2)17CO = O=C(CCOCCOCCOCCOCCOCCOCCOCCOCCOCCOCCOCCOCCOCCOCCOCCOCCOCCC(=O)[*:2])[*:1]; PEG8 = NCCOCCOCCOCCOCCOCCOCCOCCOCCC(=O)O; 3Pal = N[C@@H](Cc1cccnc1)C(=O)O; X2 = O=C(CCOCCC(=O)[*:2])[*:1]; PEG2 = NCCOCCOCCC(=O)O

Columns and labels:
Type in all cases: cell-based
[1] = target: T1, TrkB (CellSensor TrkB-NFAT-bla CHO-K1 Cell) (Homo sapiens, UniProt Q16620); experiment: pERK1/2 AlphaLISA assay (phosphorylation of ERK) for TrkB agonist activity; conditions: class = peptide concentration giving 50% or more activity; BDNF maximum signal = 100%, no stimulation = 0%; 15 minutes of stimulation
T1 construct: host or cells: CHO-K1 (CellSensor TrkB-NFAT-bla CHO-K1)
T1 sequence (Q16620 32-822): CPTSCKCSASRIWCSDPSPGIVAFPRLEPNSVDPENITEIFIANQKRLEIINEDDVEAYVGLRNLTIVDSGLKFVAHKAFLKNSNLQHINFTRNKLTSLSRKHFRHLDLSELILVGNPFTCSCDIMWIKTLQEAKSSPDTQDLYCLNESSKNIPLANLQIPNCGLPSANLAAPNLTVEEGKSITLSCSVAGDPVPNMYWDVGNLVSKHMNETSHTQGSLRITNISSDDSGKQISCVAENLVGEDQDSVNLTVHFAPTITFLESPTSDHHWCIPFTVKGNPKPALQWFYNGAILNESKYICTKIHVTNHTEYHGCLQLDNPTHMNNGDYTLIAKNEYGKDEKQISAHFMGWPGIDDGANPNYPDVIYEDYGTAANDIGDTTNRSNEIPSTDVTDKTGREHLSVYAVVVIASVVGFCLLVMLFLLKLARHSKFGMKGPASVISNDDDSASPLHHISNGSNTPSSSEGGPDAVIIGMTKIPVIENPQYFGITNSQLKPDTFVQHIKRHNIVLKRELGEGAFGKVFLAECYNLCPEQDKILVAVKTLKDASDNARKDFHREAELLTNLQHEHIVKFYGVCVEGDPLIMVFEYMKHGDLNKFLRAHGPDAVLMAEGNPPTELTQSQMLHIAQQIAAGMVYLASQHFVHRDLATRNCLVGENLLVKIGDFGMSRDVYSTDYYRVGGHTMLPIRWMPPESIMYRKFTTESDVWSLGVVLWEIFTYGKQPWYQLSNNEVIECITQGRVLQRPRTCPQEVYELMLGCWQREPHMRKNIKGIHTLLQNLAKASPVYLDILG
Method: To evaluate the TrkB activation potency of the TrkB agonist peptide of the present invention, the phosphorylation of ERK was examined. CellSensor (registered trademark) TrkB-NFAT-bla CHO-K1 Cell (Invitrogen) was cultured in DMEM, high glucose, GlutaMAX (registered trademark) Supplement, and pyruvate (Thermo), comprising 10% FBS (Thermo) and 1× Non-essential amino acids (Thermo), 25 mM HEPES (Thermo), 50 ug/mL Gentamicin, 5 ug/mL Blasticidin (Thermo), and 200 ug/mL Zeocin (Thermo). After the cells were detached using Accutase (Innovative Cell Technologies), they were seeded into a 96-well plate for adherent cultures at 12,500 cells per well and cultured overnight. The next day, for starvation, the culture solution above was replaced with a nutrient starvation medium comprising 0.1% BSA (Sigma), wherein FBS, Blasticidin, and Zeocin were removed from the culture medium, and culturing was performed for 4 hours. Thereafter, Recombinant Human BDNF Protein (R&D Systems) or a peptide was added, and after 15 minutes of stimulation, cells were lysed in the Lysis Buffer provided with the AlphaLISA SureFire Ultra p-Erk1/2 (Thr202/Tyr204) assay kit (PerkinElmer). The assay was performed according to the kit protocol. The signals were detected using a SpectraMax Paradigm Multi-Mode Microplate Reader (Molecular Devices). The obtained signals were analyzed with GraphPad Prism, and the activity (%) was calculated with the maximum value of the signals induced by BDNF as 100% and a signal with no stimulation as 0%. The peptide with 50% or more activity when 1 nM of the peptide was added was evaluated as A, and the peptide with 50% or more activity when 10 nM of the peptide was added was evaluated as B.
The BDNF was evaluated at 8 points (0.0006 nM to 10 nM) from 10 nM using 4-fold dilutions.
(§1) For dimer structures Nos. 1 to 3, the peptide was evaluated at 1 nM, 10 nM, and 100 nM, and, for other dimer structure numbers, the peptide was evaluated at 0.1 nM, 1 nM, and 10 nM. When creating the concentration dependence curve, the BDNF and the peptides were evaluated at 8 points (0.006 nM to 100 nM) from 100 nM using 4-fold dilutions.

[2] = target: T1, TrkB (CellSensor TrkB-NFAT-bla CHO-K1 Cell); experiment: NFAT transcriptional reporter assay for TrkB agonist activity; conditions: class = peptide concentration giving 50% or more activity; BDNF maximum signal = 100%, no stimulation = 0%; 5 hours culture
Method: To evaluate the TrkB activation potency of the TrkB agonist peptide of the present invention, transcriptional activity was examined using transcriptional reporters. The CellSensor (registered trademark) TrkB-NFAT-bla CHO-K1 Cell (Invitrogen) used in the AlphaLISA assay was cultured in the medium above. After the cells were detached using Accutase (Innovative Cell Technologies), the cells were suspended in an assay medium, wherein Blasticidin and Zeocin were removed, then seeded into a 96-well plate for adherent cultures at 12,500 cells per well and cultured overnight. Then, BDNF or a peptide was added thereto, and the cells were further cultured in a CO2 incubator for 5 hours. After the 96-well plate was removed from the incubator and brought to room temperature, a detection reagent (LiveBLAzer (registered trademark)-FRET B/G (CCF4-AM) Substrate Mixture) was added while protected from the light, and the 96-well plate was incubated while protected from the light in a moisture box with a lid for 2 hours. For signal detection, a EnVision 2104 Multilabel Plate Reader (PerkinElmer) was used, and the ratio of fluorescence emission value (460 nm/535 nm) was calculated. The obtained numerical values were analyzed with GraphPad Prism, and the activity (%) was calculated with the maximum value of the signals induced by BDNF as 100% and a signal with no stimulation as 0%. The peptide with 50% or more activity when 1 nM of the peptide was added was evaluated as A, the peptide with 50% or more activity when 10 nM of the peptide was added was evaluated as B, and the peptide with 50% or more activity when 100 nM of the peptide was added was evaluated as C. Those that were not evaluated were listed as not tested.
The BDNF was evaluated at 7 points (0.0024 nM to 10 nM) from 10 nM using 4-fold dilutions.
as §1, with “at […]” for “at 8”, “[…]” for “from 100”

TrkB = TrkB (Homo sapiens, UniProt Q16620); experiment: PathHunter eXpress TrkB Functional Assay (phosphorylation of TrkB); conditions: maximum signal induced by BDNF = 100%; stimulation for 3 hours
Chain of TrkB (Q16620 32-822): as above
Method: To evaluate the TrkB activation potency of the TrkB agonist peptide of the present invention, the phosphorylation of TrkB was examined. The PathHunter (registered trademark) eXpress TrkB Functional Assay kit (DiscoverX; cells, 96-well plate, medium, and detection reagents included) was used and the evaluation was performed according to the attached protocols. The frozen cells were thawed and suspended in the medium, then seeded into a 96-well plate at 10,000 cells per well and incubated for 48 hours. Thereafter, Recombinant Human BDNF Protein (R&D Systems) or a peptide was added, and after stimulation for 3 hours, a detection reagent was added. The reaction was performed while protected from the light at room temperature for 60 minutes, and luminescent signals were measured using a SpectraMax Paradigm Multi-Mode Microplate Reader (Molecular Devices). The obtained signals were analyzed with GraphPad Prism, and the activity (%) was calculated with the maximum value of the signals induced by BDNF as 100% and a signal with no stimulation as 0%.
The BDNF was evaluated at 8 points (0.006 nM to 100 nM) from 100 nM using 4-fold dilutions. The peptide was evaluated in the measurement ranges A to C shown below. • Measurement range A=6 points from 100 nM using 5-fold dilutions (0.032 nM to 100 nM) • Measurement range B=8 points from 100 nM using 4-fold dilutions (0.006104 nM to 100 nM) • Measurement range C=4 points from 10 nM using 10-fold dilutions (0.01 nM to 10 nM)

Compound	pERK (aLISA) Assay Results [1]	NFAT Assay Results [2]	Emax (TrkB) [%]
CC(C)[C@@H]1NC(=O)[C@H](Cc2cccnc2)NC(=O)[C@H](CCC(=O)O)NC(=O)[C@H](CO)NC(=O)[C@H](Cc2ccc(O)cc2)NC(=O)[C@H]([C@@H](C)O)NC(=O)[C@@H]2CCCN2C(=O)[C@H](Cc2c[nH]c3ccccc23)NC(=O)[C@H](Cc2cccnc2)NC(=O)[C@H](Cc2ccc(O)cc2)NC(=O)[C@@H]2CCCN2C(=O)[C@H](CO)NC(=O)[C@H](Cc2ccccc2)NC(=O)CSC[C@@H](C(=O)NCC(=O)NCCOCCOCCC(=O)N[C@@H](CCCCNC(=O)CCOCCC(=O)NCCCC[C@H](NC(=O)CCOCCOCCNC(=O)CNC(=O)[C@@H]2CSCC(=O)N[C@@H](Cc3ccccc3)C(=O)N[C@@H](CO)C(=O)N3CCC[C@H]3C(=O)N[C@@H](Cc3ccc(O)cc3)C(=O)N[C@@H](Cc3cccnc3)C(=O)N[C@@H](Cc3c[nH]c4ccccc34)C(=O)N3CCC[C@H]3C(=O)N[C@@H]([C@@H](C)O)C(=O)N[C@@H](Cc3ccc(O)cc3)C(=O)N[C@@H](CO)C(=O)N[C@@H](CCC(=O)O)C(=O)N[C@@H](Cc3cccnc3)C(=O)N[C@@H](C(C)C)C(=O)N[C@@H](CCC(=O)O)C(=O)N2)C(N)=O)C(N)=O)NC(=O)[C@H](CCC(=O)O)NC1=O [compound 51] (I: {CH2CO}-FSPY[3Pal]WPTYSE[3Pal]VECG[PEG2]K-NH2 / II: {CH2CO}-FSPY[3Pal]WPTYSE[3Pal]VECG[PEG2]K-NH2; linker I:18-II:18 via X2; thioether I:N-I:15, II:N-II:15)	A (The peptide with 50% or more activity when 1 nM of the peptide was added was evaluated as A)	A (The peptide with 50% or more activity when 1 nM of the peptide was added was evaluated as A)	106
CC(C)[C@@H]1NC(=O)[C@H](Cc2cccnc2)NC(=O)[C@H](CCC(=O)O)NC(=O)[C@H](CO)NC(=O)[C@H](Cc2ccc(O)cc2)NC(=O)[C@H]([C@@H](C)O)NC(=O)[C@@H]2CCCN2C(=O)[C@H](Cc2c[nH]c3ccccc23)NC(=O)[C@H](Cc2cccnc2)NC(=O)[C@H](Cc2ccc(O)cc2)NC(=O)[C@@H]2CCCN2C(=O)[C@H](CO)NC(=O)[C@H](Cc2ccccc2)NC(=O)CSC[C@@H](C(=O)NCC(=O)NCCOCCOCCOCCOCCOCCOCCOCCOCCC(=O)N[C@@H](CCCCNC(=O)CCOCCC(=O)NCCCC[C@H](NC(=O)CCOCCOCCOCCOCCOCCOCCOCCOCCNC(=O)CNC(=O)[C@@H]2CSCC(=O)N[C@@H](Cc3ccccc3)C(=O)N[C@@H](CO)C(=O)N3CCC[C@H]3C(=O)N[C@@H](Cc3ccc(O)cc3)C(=O)N[C@@H](Cc3cccnc3)C(=O)N[C@@H](Cc3c[nH]c4ccccc34)C(=O)N3CCC[C@H]3C(=O)N[C@@H]([C@@H](C)O)C(=O)N[C@@H](Cc3ccc(O)cc3)C(=O)N[C@@H](CO)C(=O)N[C@@H](CCC(=O)O)C(=O)N[C@@H](Cc3cccnc3)C(=O)N[C@@H](C(C)C)C(=O)N[C@@H](CCC(=O)O)C(=O)N2)C(N)=O)C(N)=O)NC(=O)[C@H](CCC(=O)O)NC1=O [compound 33] (I: {CH2CO}-FSPY[3Pal]WPTYSE[3Pal]VECG[PEG8]K-NH2 / II: {CH2CO}-FSPY[3Pal]WPTYSE[3Pal]VECG[PEG8]K-NH2; linker I:18-II:18 via X2; thioether I:N-I:15, II:N-II:15)	A (The peptide with 50% or more activity when 1 nM of the peptide was added was evaluated as A)	A (The peptide with 50% or more activity when 1 nM of the peptide was added was evaluated as A)	96
CC(C)[C@@H]1NC(=O)[C@H](Cc2cccnc2)NC(=O)[C@H](CCC(=O)O)NC(=O)[C@H](CO)NC(=O)[C@H](Cc2ccc(O)cc2)NC(=O)[C@H]([C@@H](C)O)NC(=O)[C@@H]2CCCN2C(=O)[C@H](Cc2c[nH]c3ccccc23)NC(=O)[C@H](Cc2cccnc2)NC(=O)[C@H](Cc2ccc(O)cc2)NC(=O)[C@@H]2CCCN2C(=O)[C@H](CO)NC(=O)[C@H](Cc2ccccc2)NC(=O)CSC[C@@H](C(=O)NCC(=O)N[C@@H](CCCCNC(=O)CCOCCOCCOCCOCCOCCOCCOCCOCCOCCOCCOCCOCCOCCOCCOCCOCCOCCC(=O)NCCCC[C@H](NC(=O)CNC(=O)[C@@H]2CSCC(=O)N[C@@H](Cc3ccccc3)C(=O)N[C@@H](CO)C(=O)N3CCC[C@H]3C(=O)N[C@@H](Cc3ccc(O)cc3)C(=O)N[C@@H](Cc3cccnc3)C(=O)N[C@@H](Cc3c[nH]c4ccccc34)C(=O)N3CCC[C@H]3C(=O)N[C@@H]([C@@H](C)O)C(=O)N[C@@H](Cc3ccc(O)cc3)C(=O)N[C@@H](CO)C(=O)N[C@@H](CCC(=O)O)C(=O)N[C@@H](Cc3cccnc3)C(=O)N[C@@H](C(C)C)C(=O)N[C@@H](CCC(=O)O)C(=O)N2)C(N)=O)C(N)=O)NC(=O)[C@H](CCC(=O)O)NC1=O [compound 49] (I: {CH2CO}-FSPY[3Pal]WPTYSE[3Pal]VECGK-NH2 / II: {CH2CO}-FSPY[3Pal]WPTYSE[3Pal]VECGK-NH2; linker I:17-II:17 via CO(CH2)2(OCH2CH2)17CO; thioether I:N-I:15, II:N-II:15)	A (The peptide with 50% or more activity when 1 nM of the peptide was added was evaluated as A)	A (The peptide with 50% or more activity when 1 nM of the peptide was added was evaluated as A)	107
